{"source": "paper PMC10830684", "about": "“Effect of Oregon grape root extracts on P-glycoprotein mediated transport in in vitro cell lines” (Journal of Pharmacy & Pharmaceutical Sciences, 2024)", "molecular_target": "P-glycoprotein (MDCKII-MDR1 cells) (Homo sapiens, UniProt P08183)", "sequence (P08183 whole entry)": "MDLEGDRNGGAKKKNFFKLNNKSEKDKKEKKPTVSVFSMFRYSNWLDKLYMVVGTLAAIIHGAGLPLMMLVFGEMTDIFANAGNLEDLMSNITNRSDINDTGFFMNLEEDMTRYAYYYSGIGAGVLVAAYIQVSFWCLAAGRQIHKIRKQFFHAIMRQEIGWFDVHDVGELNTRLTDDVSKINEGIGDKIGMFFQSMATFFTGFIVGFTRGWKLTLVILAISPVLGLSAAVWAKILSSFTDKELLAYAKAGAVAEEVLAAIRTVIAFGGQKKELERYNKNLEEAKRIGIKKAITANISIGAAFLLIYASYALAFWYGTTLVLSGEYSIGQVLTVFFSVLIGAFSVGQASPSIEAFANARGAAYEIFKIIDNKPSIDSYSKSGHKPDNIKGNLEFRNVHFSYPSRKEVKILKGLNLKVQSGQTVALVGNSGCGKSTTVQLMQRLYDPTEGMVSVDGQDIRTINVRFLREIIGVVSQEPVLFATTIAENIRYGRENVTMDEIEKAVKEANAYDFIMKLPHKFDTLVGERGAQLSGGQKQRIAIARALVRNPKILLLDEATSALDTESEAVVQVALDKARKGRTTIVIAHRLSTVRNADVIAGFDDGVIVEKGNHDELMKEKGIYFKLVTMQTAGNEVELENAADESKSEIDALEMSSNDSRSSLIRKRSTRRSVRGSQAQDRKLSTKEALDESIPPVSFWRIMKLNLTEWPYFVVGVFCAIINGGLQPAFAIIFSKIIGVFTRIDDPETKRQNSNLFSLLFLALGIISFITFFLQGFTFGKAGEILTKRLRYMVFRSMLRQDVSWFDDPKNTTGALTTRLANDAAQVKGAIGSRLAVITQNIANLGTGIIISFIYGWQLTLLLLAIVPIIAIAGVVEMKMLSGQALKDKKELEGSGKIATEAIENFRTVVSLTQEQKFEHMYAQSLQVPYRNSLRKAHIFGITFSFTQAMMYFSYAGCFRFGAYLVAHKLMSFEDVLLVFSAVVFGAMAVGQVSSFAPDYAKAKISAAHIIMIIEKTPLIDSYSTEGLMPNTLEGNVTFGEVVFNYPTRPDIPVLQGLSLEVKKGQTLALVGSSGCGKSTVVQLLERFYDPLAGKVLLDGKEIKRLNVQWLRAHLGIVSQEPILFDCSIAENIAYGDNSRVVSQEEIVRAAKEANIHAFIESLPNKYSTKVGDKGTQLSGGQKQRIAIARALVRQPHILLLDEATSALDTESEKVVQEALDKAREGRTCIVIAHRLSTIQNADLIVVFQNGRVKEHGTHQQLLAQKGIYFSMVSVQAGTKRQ", "assay": "Transepithelial transport of berberine and berbamine across MDCKII-MDR1 cells", "format": "in vitro ADME", "parameters": "expressed in transfected cells; host or cells: MDCKII-MDR1 (Madin-Darby canine kidney II cells overexpressing MDR1)", "details": "100 µM", "description": "Transport of ^3H-CsA and ^3H-digoxin (0.5 µM and 1.0 µCi), MDR1 substrates, were performed using transport buffer consisting of HBSS with 10 mM HEPES and 25 mM D-glucose at a pH of 6.8 for the apical (A) compartment and 7.4 for the basolateral (B) compartment. Experiments were performed at 37°C, 5% CO2, and 95% relative humidity. Cells in the Transwell® inserts were washed 3 times with a transport buffer and allowed to equilibrate for 30 min prior to the addition of test compounds. […] To evaluate the efflux mechanism involved with berberine and berbamine, 100 µM of berberine and berbamine were placed in the donor chamber and 100 µL samples were collected in the receiver chamber at 0, 0.5, 1.0, 1.5, 2.0, 2.5, and 3.0 h and analyzed by HPLC. Each experiment was performed in duplicate and repeated for each condition tested. For experiments performed in “non-sink” conditions, 100 µL aliquots were taken from the donor and receiver chambers at the beginning and from the receiver chamber at 0.5, 1.0, 1.5, 2.0, 2.5, and 3.0 h. An equal volume of 100 µL was replaced in the chamber at each sample time point. […] A 100 µL sample was taken from the donor chamber at 3 h in order to calculate the mass balance of radioactivity to determine if adsorption to the cell culture transport apparatus had occurred. Each sample was placed in 0.9 mL of scintillation fluor (Cytoscint ES, ICN, Cosa Mesa, CA, USA) and read on a Beckman LS 6500 (Palo Alto, CA, USA) scintillation counter for ^3H activity. […]\nThe apparent permeability (Papp) was calculated using the following equation [40]: Papp=dQ/dt×1/A×C0\nWhere A is the surface area of the monolayer (4.71 cm^2) and C0 is the initial concentration of radiolabeled probe substrate in the donor compartment. dQ/dt is the slope of the steady-state rate constant. The efflux ratio was determined by dividing the Papp in the B to A direction by the Papp in the A to B direction: Efflux ratio=PappB to A/PappA to B […]"}
{"smiles": "COc1ccc2cc3[n+](cc2c1OC)CCc1cc2c(cc1-3)OCO2.[Cl-]", "note": "[Berberine, Berberine chloride]", "values": [{"measurement": "Papp A to B direction", "result": "1.3e-06", "unit": "cm/s"}, {"measurement": "Papp B to A direction", "result": "1.56e-05", "unit": "cm/s"}, {"measurement": "fold increase of Papp B to A compared with A to B", "result": "approximately 12 fold"}]}
